# From patent publication US8167866B2, “Drug delivery system for accelerated subcutaneous absorption” (priority 2004, dated 2012)
# Assays:
# [1] = typical duration; routine lidocaine versus tumescent infiltration; cited from earlier work
# [2] = test system: cutaneous blood vessels; assay: topical application of aqueous solution, erythema of the affected area; format: in vivo, human; details: patient, within minutes
# From the text: The fluid or the solution of pharmacologic drug may include a crystalloid solution or a dilute solution of pharmacologic drug such as an antibiotic. The drug used to accelerate the absorption rate of the fluid or the pharmacologic drug is operative to cause capillary vasodilatation, that is, vasodilatation of cutaneous blood vessels. The dilation of capillaries increases the rate of blood flowing through the affected subcutaneous tissue; and consequently, increases the rate of absorption into the systemic circulation of the fluid or pharmacologic drug. As the rate of absorption and circulation of the fluid or pharmacologic drug increases, a clinically significant degree of systemic absorption of the fluid or pharmacologic drug can be achieved without the application of IV access. Currently, many drugs are available to provide the vasodilatation of cutaneous blood vessels of a human body. However, it is appreciated that those drugs which are pharmacologic and potentially toxic to the human bodies are not the appropriate candidates for such drug. For example, although lidocaine is effective to cause dilation of capillaries and increase the rate of blood flowing through affected subcutaneous tissue, which in turn accelerates the absorption rate of drug, it might not be an appropriate candidate for such a drug due to its potentially toxic effect if its concentration is too high. […]
Compound,duration of local anesthesia [1] [h],erythema of the affected area [2]
CCN(CC)CC(=O)Nc1c(C)cccc1C [lidocaine],~2,
CNC(=O)c1cccnc1 [methyl-nicotinamide],,very obvious erythema
COC(=O)c1cccnc1 [methyl-nicotinate],,very obvious erythema
